Measurements reported in PubChem BioAssay AID1963865 (Molecular Pharmacology Branch, DTP, NCI, 2024).

Test system: KRAS PDC multicell spheroid viability
Assay: Anticancer human tumor 825966-067-R-J1-PDC patient-derived colon carcinoma cell line growth inhibition [KRAS2]
Conditions: for IC50: curve of first compound; for viability, T/C: stronger effect = lower value
Description: Multicellular complex tumor spheroid response to RAS pathway inhibitors in combination with a targeted agents in patient-derived cell lines with oncogenic KRAS variants from multiple cancer types
A high-throughput screen of multi-cell type tumor spheroids was designed to identify active combinations of targeted small molecules and KRAS pathway inhibitors. Complex spheroids include a stromal component modeled by human endothelial cells (HUVEC) and fibroblasts modeled by human mesenchymal stem cells (MSCs). The concentration ranges selected for each drug and investigational agent were based upon clinically achievable concentrations if the clinical Cmax of the agent was known.
Compounds. The drugs and investigational agents: BI-3406 (NSC825286), BAY-293 (NSC824723), batoprotafib (TNO155; NSC825523), sotorasib (AMG 510; NSC818433), MRTX1257 (NSC819558), elimusertib (BAY 1895344; NSC800525), molibresib (GSK525762; NSC774829), temuterkib (LY3214996; NSC803410), venetoclax (NSC766270), alisertib (NSC759677), olaparib (NSC753686), talazoparib (NSC767125), erdafitinib (NSC781556), ipatasertib (NSC767898), cabozantinib (NSC761068), nintedanib (NSC756659), abemaciclib (NSC768073), docetaxel (NSC628503), trametinib (NSC758246), and sapanisertib (NSC764658) were obtained from the National Cancer Institute (NCI) Developmental Therapeutics Program Chemical Repository. The FDA-approved anticancer drug set is available from the Developmental Therapeutics Program. […] The stock solutions were prepared in dimethyl sulfoxide (DMSO, Sigma-Aldrich, St. Louis, MO, cat. D2650) at 800-fold the tested concentration and stored at -70 degrees C prior to their use. All drugs and investigational agents were tested over a range starting from a high concentration at or near the clinical Cmax and decreasing in half-log increments. If the clinical Cmax for an agent had not been determined, the highest concentration tested was 10 microM.
Cell Culture. All cells were maintained in an incubator at 37 degrees C and 5% CO2 with 95% humidity. The PDC lines were cultured according to standard operating procedures established by the NCI PDMR (https://pdmr.cancer.gov/sops/default.htm). Briefly, all PDCs were thawed and cultured in Matrigel-coated flasks prepared with a working solution of 1X Ham's F-12 nutrient mix, without supplementation (Invitrogen, Waltham, MA, cat. 11765054), 100 U/mL penicillin-streptomycin (Invitrogen, cat. 15140122), and 2.5% Matrigel (Corning Inc., Corning, NY, cat. 354248) for the first three passages. All PDCs were cultured in complete DMEM/F-12 media containing advanced DMEM/F-12 (Invitrogen, cat. 12634028), 4.9% defined fetal bovine serum, heat inactivated (HyClone Laboratories Inc., Logan, UT, cat. SH30070.03HI), 389 ng/mL hydrocortisone (Sigma-Aldrich, cat. H4001), 9.7 ng/mL human EGF recombinant protein (Invitrogen, cat. PHG0313), 23.4 microg/mL adenine (Sigma-Aldrich, cat. A2786), 97.3 U/mL penicillin-streptomycin (Invitrogen, cat. 15140122), 1.9 mM L-glutamine (Invitrogen, cat. 25030081), and 9.7 microM Y-27632 dihydrochloride (Tocris Bioscience, Bristol, United Kingdom, cat. 1254). The PDCs were cultured in complete DMEM/F12 media without 9.7 microM Y-27632 dihydrochloride for at least two passages prior to the screen. The established cell line HOP-62 was cultured in RPMI 1640 medium, HEPES (Invitrogen, cat. 22400105) with 10% defined fetal bovine serum (HyClone Laboratories Inc., cat. SH30070.03) and 2 mM L-glutamine (Invitrogen, cat. 25030081). The pooled donor HUVEC were cultured in endothelial cell growth medium 2 (PromoCell, Heidelberg, Germany, cat. C-22011) and the hMSC were cultured in mesenchymal stem cell growth medium 2 (PromoCell, cat. C-28009). For all experiments, HUVEC and hMSC were used at passages </=5, while the malignant cell lines were used at passages </=15. […]

[1] = second compound 0.1 µM, first compound 0.0316 µM
[2] = second compound 0.1 µM, first compound 0.1 µM
[3] = second compound 0.1 µM, first compound 0.316 µM
[4] = second compound 0.1 µM, first compound 1 µM
[5] = second compound 0.1 µM, first compound 3.16 µM
[6] = second compound 0.316 µM, first compound 0.0316 µM
[7] = second compound 0.316 µM, first compound 0.1 µM
[8] = second compound 0.316 µM, first compound 0.316 µM
[9] = second compound 0.316 µM, first compound 1 µM
[10] = second compound 0.316 µM, first compound 3.16 µM
[11] = second compound 1 µM, first compound 0.0316 µM
[12] = second compound 1 µM, first compound 0.1 µM
[13] = second compound 1 µM, first compound 0.316 µM
[14] = second compound 1 µM, first compound 1 µM
[15] = second compound 1 µM, first compound 3.16 µM
[16] = second compound 3.16 µM, first compound 0.0316 µM
[17] = second compound 3.16 µM, first compound 0.1 µM
[18] = second compound 3.16 µM, first compound 0.316 µM
[19] = second compound 3.16 µM, first compound 1 µM
[20] = second compound 3.16 µM, first compound 3.16 µM
[21] = second compound 10 µM, first compound 0.0316 µM
[22] = second compound 10 µM, first compound 0.1 µM
[23] = second compound 10 µM, first compound 0.316 µM
[24] = second compound 10 µM, first compound 1 µM
[25] = second compound 10 µM, first compound 3.16 µM
[26] = second compound 0.1 µM, first compound 10 µM
[27] = second compound 0.316 µM, first compound 10 µM
[28] = second compound 1 µM, first compound 10 µM
[29] = second compound 3.16 µM, first compound 10 µM
[30] = second compound 10 µM, first compound 10 µM
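Note: spheroids exposed to compounds for 7 days.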
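Throughout, for viability, T/C: 100% = DMSO vehicle control viability.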

Row | SMILES | IC50 (second compound 0.1 µM) [µM] | IC50 (second compound 0.316 µM) [µM] | IC50 (second compound 1 µM) [µM] | IC50 (second compound 3.16 µM) [µM] | IC50 (second compound 10 µM) [µM] | viability, T/C [1] [%] | viability, T/C [2] [%] | viability, T/C [3] [%] | viability, T/C [4] [%] | viability, T/C [5] [%] | viability, T/C [6] [%] | viability, T/C [7] [%] | viability, T/C [8] [%] | viability, T/C [9] [%] | viability, T/C [10] [%] | viability, T/C [11] [%] | viability, T/C [12] [%] | viability, T/C [13] [%] | viability, T/C [14] [%] | viability, T/C [15] [%] | further results
1 | CC1COCCN1c1cc(-c2ccnn2C)c2ccnc(-c3ccn[nH]3)c2n1 (stereo not given) + C=CC(=O)N1CCN(c2nc(=O)n(-c3c(C)ccnc3C(C)C)c3nc(-c4c(O)cccc4F)c(F)cc23)C(C)C1 | 0.308 | > 3.16 | 0.263 | 3.16 | > 3.16 | 135 | 123 | 41.5 | 56.2 | 47.4 | 142 | 72.9 | 60.3 | 44.9 | 60.4 | 125 | 71 | 41.5 | 51.1 | 41.4 | viability, T/C (second compound 0.1 µM, first compound 0.01 µM): 110%; viability, T/C (second compound 0.316 µM, first compound 0.01 µM): 137%; viability, T/C (second compound 1 µM, first compound 0.01 µM): 137%; viability, T/C (second compound 3.16 µM, first compound 0.01 µM): 106%; viability, T/C [16]: 146%; viability, T/C [17]: 70.4%; viability, T/C [18]: 70.8%; viability, T/C [19]: 51.2%; viability, T/C [20]: 43%; viability, T/C (second compound 10 µM, first compound 0.01 µM): 137%; viability, T/C [21]: 108%; viability, T/C [22]: 64.6%; viability, T/C [23]: 75.8%; viability, T/C [24]: 59.1%; viability, T/C [25]: 47.2%
2 | CC1OCC2(CCN(c3cnc(Sc4ccnc(N)c4Cl)c(N)n3)CC2)C1N (stereo not given) + C=CC(=O)N1CCN(c2nc(=O)n(-c3c(C)ccnc3C(C)C)c3nc(-c4c(O)cccc4F)c(F)cc23)C(C)C1 | 9.58 | 6.95 | 7.78 | 6.05 | 4.49 | 78.4 | 66.8 | 98.4 | 85 | 94.1 | 82.8 | 96.1 | 79.4 | 78.3 | 94.1 | 82.1 | 69.3 | 74.8 | 75.5 | 76.3 | viability, T/C [26]: 48.6%; viability, T/C [27]: 33.3%; viability, T/C [28]: 43.1%; viability, T/C [16]: 93.5%; viability, T/C [17]: 70.1%; viability, T/C [18]: 83.2%; viability, T/C [19]: 81%; viability, T/C [20]: 90.4%; viability, T/C [29]: 23.9%; viability, T/C [21]: 80.5%; viability, T/C [22]: 74.3%; viability, T/C [23]: 106%; viability, T/C [24]: 92.9%; viability, T/C [25]: 70.1%; viability, T/C [30]: 4.36%
3 | CCNC(=O)CC1N=C(c2ccc(Cl)cc2)c2cc(OC)ccc2-n2c(C)nnc21 (stereo not given) + C=CC(=O)N1CCN(c2nc(=O)n(-c3c(C)ccnc3C(C)C)c3nc(-c4c(O)cccc4F)c(F)cc23)C(C)C1 | > 10 | > 10 | > 10 | > 10 | 1.29 | 81 | 80.9 | 108 | 111 | 99.5 | 79.6 | 76.6 | 68 | 104 | 85.6 | 80.9 | 91.5 | 102 | 83.3 | 83.9 | viability, T/C [26]: 81.8%; viability, T/C [27]: 85.2%; viability, T/C [28]: 63.6%; viability, T/C [16]: 74.8%; viability, T/C [17]: 82.3%; viability, T/C [18]: 98.3%; viability, T/C [19]: 91.8%; viability, T/C [20]: 50.1%; viability, T/C [29]: 61.5%; viability, T/C [21]: 104%; viability, T/C [22]: 72.5%; viability, T/C [23]: 95.4%; viability, T/C [24]: 54.3%; viability, T/C [25]: 32.4%; viability, T/C [30]: 36.9%
4 | Cn1nccc1Nc1nccc(-c2cc3c(s2)C(C)(C)N(CCN2CCOCC2)C3=O)n1 + C=CC(=O)N1CCN(c2nc(=O)n(-c3c(C)ccnc3C(C)C)c3nc(-c4c(O)cccc4F)c(F)cc23)C(C)C1 | > 10 | > 10 | 7.09 | > 10 | > 10 | 89.9 | 101 | 119 | 100 | 81.3 | 84.2 | 91.3 | 122 | 107 | 83.2 | 86.9 | 83.6 | 103 | 98.7 | 78.4 | viability, T/C [26]: 85.8%; viability, T/C [27]: 72.2%; viability, T/C [28]: 38%; viability, T/C [16]: 95.3%; viability, T/C [17]: 95.7%; viability, T/C [18]: 111%; viability, T/C [19]: 82.8%; viability, T/C [20]: 77.7%; viability, T/C [29]: 67%; viability, T/C [21]: 73.4%; viability, T/C [22]: 86.5%; viability, T/C [23]: 92.1%; viability, T/C [24]: 82.5%; viability, T/C [25]: 77.8%; viability, T/C [30]: 73%
